# “And” between values parts separate entries of the source, which are not always exact repeats. Identical values can stand only once. “Also recorded” adds a separate entry of the source.
# Tested on: ROS1-positive advanced NSCLC
# Experiment: Phase I clinical trial, indication expansion phase: efficacy in group B (ROS1-positive, prior crizotinib)
# Format: in vivo, human
# Procedure: The anti-tumor efficacy is evaluated according to RECIST version 1.1. For patients initially evaluated as having a complete response (CR) or partial response (PR), efficacy should be confirmed at least 4 weeks later. In the patients with asymptomatic central nervous system (CNS) metastases, in addition to evaluating 5 extracranial target lesions, up to 5 intracranial target lesions will also be evaluated. The specific indicators are as follows:
# "ORR" includes CR and PR, and is defined as the proportion of patients who achieve complete response or partial response.
# "IC-ORR" includes CR or PR for confirmed intracranial lesions, and is defined as the proportion of the patients with complete response or partial response of intracranial lesions among the patients with intracranial lesions.
# "DCR" is defined as the proportion of the patients who achieve response (PR+CR) and stable disease (SD) after a treatment.
# "IC-DCR" is defined as the proportion of the patients who achieve intracranial response (PR+CR), intracranial stable disease (SD), and […] after a treatment among the patients with intracranial lesions.
# "DOR" is defined as the time from the first assessment of CR or PR to progressive disease or death, and is only applicable to the patients who achieve response.
# "IC-DOR" is defined as the time from the first assessment of intracranial CR or intracranial PR to progressive disease or death, and is only applicable to the patients whose intracranial lesions achieve response.
# "TTR" is defined as the time from patient enrollment (first dose of investigational drug) to tumor response (CR/PR), based on the patients with objective response.
# "IC-TTR" is defined as the time from patient enrollment (first dose of investigational drug) to intracranial tumor response (IC-CR/PR), based on the patients with intracranial objective response.
# "PFS" is defined as the time from the first administration of the investigational drug to progressive disease (PD) or death from any cause, whichever comes first.
# In the indication expansion phase, an appropriate administration regimen was determined based on the safety, tolerability, PK and efficacy data from the dose escalation phase and dose expansion phase, and the expansion was performed within the target population.
# The result of a pregnancy test conducted ≤7 days prior to the first administration of the investigational drug must be negative for the women of childbearing age.
# [1] = intracranial measurable lesions, Group B (n=6)
smiles,measurement,setting,value
"[2H]C([2H])([2H])n1nc2c(c1C#N)-c1cnc(N)c(c1)O[C@H](C)c1cc(F)ccc1C(=O)N(C)C2 [compound A, (10R)-7-amino-12-fluoro-2-(methyl-d3)-10,16-dimethyl-15-oxo-10,15,16,17-tetrahydro-2H-8,4-(metheno)pyrazolo[4,3-h][2,5,11]benzoxadiazacyclotetradecine-3-carbonitrile]",ORR,24 ROS1-positive NSCLC patients previously treated with crizotinib,29.2%
same,intracranial ORR,"ROS1-positive, six patients with measurable CNS lesions at baseline",50.0%
same,median PFS,"group B, FAS, as of April 17, 2024",8.36 months
same,BOR CR,[1],0 n (%)
same,BOR NE,[1],0 n (%)
same,BOR PD,[1],1 (16.7) n (%)
same,BOR PR,[1],3 n (%) and 3 (50.0) n (%)
same,BOR SD,[1],2 (33.3) n (%)
same,Confirmed ORR (95% CI),[1],"3 (50.0) (11.8, 88.2) n (%)"
same,DCR (95% CI),[1],"5 (83.3) (35.9, 99.6) n (%)"
same,Median DOR (95% CI),[1],not reached
same,Median TTR (range),[1],"1.41 months and 1.41 (1.35, 1.41) months"
same,BOR CR,"systemic, Group B (n=24)",0 n (%)
same,BOR NE,"systemic, Group B (n=24)",0 n (%)
same,BOR PD,"systemic, Group B (n=24)",7 (29.2) n (%)
same,BOR PR,"systemic, Group B (n=24)",7 (29.2) n (%)
same,BOR SD,"systemic, Group B (n=24)",10 (41.7) n (%)
same,Confirmed ORR (95% CI),"systemic, Group B (n=24)","7 (29.2) (12.6,51.1) n (%)"
same,DCR (95% CI),"systemic, Group B (n=24)","17 (70.8) (48.9, 87.4) n (%)"
same,Median DOR (95% CI),"systemic, Group B (n=24)","not reached; also recorded: NR (4.370, -)"
same,Median TTR (range),"systemic, Group B (n=24)","1.41 months and 1.41 (1.31, 7.03) months"
